Measurements reported in PubChem BioAssay AID1918944 (Molecular Pharmacology Branch, DTP, NCI, 2023).

Test system: 786-0 complex spheroid viability
Assay: Anticancer human tumor 786-0 cell line growth inhibition;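 note: spheroids exposed to agents for seven days before readout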
Settings: for IC50: curve of first compound; for viability, T/C: stronger effect = lower value
Text: Multicellular complex tumor spheroid response to LSD1 Inhibitor Iadademstat in combination with a variety of drugs and investigational agents in selected tumor cell lines
The current study was undertaken to assess response to LSD1 inhibitors in combination with standard-of-care drugs and investigational agents in solid tumor complex spheroid models as well as in the K-562 leukemia. Complex spheroids include a stromal component modeled by human endothelial cells (HUVEC) and fibroblasts modeled by human mesenchymal stem cells (MSCs). The concentration ranges selected for each drug and investigational agent were based upon clinically achievable concentrations if the clinical Cmax of the agent was known.
Compounds. The drugs and investigational agents used in this study are listed on Table 1. All of the agents used, including staurosporine (NSC755774) and gemcitabine (NSC613327), were obtained from the Developmental Therapeutics Program, NCI. FDA-approved anticancer drugs are available from the NCI at http://dtp.nci.nih.gov/branches/dscb/oncology_drugset_explanation.html. Drugs and investigational agents were >95% pure by proton nuclear magnetic resonance (NMR) and liquid chromatography/mass spectrometry (LC/MS). Stock solutions were prepared at 400x in DMSO, stored at -70 degrees C, and diluted in fresh medium prior to their use. The final concentration of DMSO in cell culture wells never exceeded 0.25% (v/v). The FDA-approved anticancer drug set is available from the Developmental Therapeutics Program at https://dtp.cancer.gov/organization/dscb/obtaining/available_plates.htm. All drugs and investigational agents were tested over a range starting from a high concentration at or near the clinical Cmax and decreasing in half-log increments. If the clinical Cmax for an agent had not been determined, the highest concentration tested was 10 microM.
Cell Lines. The patient-derived cancer cell (PDC) lines: 292921-168-R-J2-PDC, K24384-001-R-PDC, and 521955-158-R2-J5-PDC pancreatic carcinomas, 556581-035-R-J1 ovarian carcinoma, 324938-238-R-J1-PDC, 855422-203-R-J1-PDC and 883617-216-R-J1-PDC urothelial bladder carcinomas, 743489-274-T-PDC renal cell carcinoma, 138582-R-J1 Merkel cell tumor, K60290-347-R-J1 and K57222-313-R-J1-PDC glioblastomas, 653999-131-R-J2-PDC, LG0703-F948-PDC, and 349418-098-R-PDC non-small cell lung carcinomas, 885512-296-R-J2-PDC, 171881-019-R-J1-PDC breast carcinomas and 186277-243-T-J2-PDC and 233499-124-R-J2-PDC colon carcinomas were obtained from the NCI Patient-Derived Models Repository (PDMR, https://pdmr.cancer.gov). The established cell lines NCI/ADR-RES (RRID:CVCL_14520 and OVCAR-5 (RRID:CVCL_1628) ovarian carcinomas, 786-O (RRID:CVCL_1051) and A498 (RRID:CVCL_A498) renal cell carcinoma, NCI-H211 (ATCC, cat. CRL-5824; RRID:CVCL_1529), NCI-H196 (ATCC, cat. CRL-5823, RRID:CVCL_1509), SW 1271 (ATCC, cat. CRL-2177, RRID:CVCL_1716) and NCI-H1876 (ATCC, cat. CRL-5902, RRID:CVCL_1503) small cell lung carcinomas, MDA-MB-231 (RRID:CVCL_0062) and MDA-MB-468 (RRID:CVCL_0419)breast carcinomas (10-12). Pooled donor human umbilical vein endothelial cells (HUVEC, Lonza, cat. CC-2519) and human mesenchymal stem cells (hMSC, Lonza, cat. PT-2501) were purchased from Lonza (Walkersville, MD).
Cell Culture. All cells were maintained in an incubator at 37 degrees C and 5% CO2 with 95% humidity. The PDC lines were cultured according to standard operating procedures established by the NCI PDMR (https://pdmr.cancer.gov). Briefly all PDCs were thawed and cultured in Matrigel-coated flasks prepared with a working solution of 1X Ham's F-12 nutrient mix, without supplementation (Invitrogen, Waltham, MA, cat. 11765054), 100 U/mL penicillin-streptomycin (Invitrogen, cat. 15140122), and 2.5% Matrigel (Corning Inc., Corning, NY, cat. 354248) for the first three passages. […]

`O=C(C=Cc1cccc(S(=O)(=O)Nc2ccccc2)c1)NO` + NC1CCC(NC2CC2c2ccccc2)CC1 was tested, and the IC50 (second compound 0.1 µM) was 942 nM, the IC50 (second compound 0.316 µM) was 1020 nM and the IC50 (second compound 1 µM) was 912 nM. For the same molecule, the IC50 (second compound 3.16 µM) was 653 nM, the IC50 (second compound 10 µM) was 446 nM and the viability, T/C (second compound 0.1 µM, first compound 0.00949 µM) was 112%. It also gave a viability, T/C (second compound 0.1 µM, first compound 0.03 µM) of 109%, a viability, T/C (second compound 0.1 µM, first compound 0.0949 µM) of 107% and a viability, T/C (second compound 0.1 µM, first compound 0.3 µM) of 99.6%. The viability, T/C (second compound 0.1 µM, first compound 0.949 µM) was 49.6%, the viability, T/C (second compound 0.1 µM, first compound 3 µM) was 6.03% and the viability, T/C (second compound 0.316 µM, first compound 0.00949 µM) was 113%. For the same molecule, the viability, T/C (second compound 0.316 µM, first compound 0.03 µM) was 111%, the viability, T/C (second compound 0.316 µM, first compound 0.0949 µM) was 112% and the viability, T/C (second compound 0.316 µM, first compound 0.3 µM) was 104%. The viability, T/C (second compound 0.316 µM, first compound 0.949 µM) was 53.2%, the viability, T/C (second compound 0.316 µM, first compound 3 µM) was 5.39% and the viability, T/C (second compound 1 µM, first compound 0.00949 µM) was 107%. It also gave a viability, T/C (second compound 1 µM, first compound 0.03 µM) of 107%, a viability, T/C (second compound 1 µM, first compound 0.0949 µM) of 110% and a viability, T/C (second compound 1 µM, first compound 0.3 µM) of 92.8%. For the same molecule, the viability, T/C (second compound 1 µM, first compound 0.949 µM) was 48.7%, the viability, T/C (second compound 1 µM, first compound 3 µM) was 5.27% and the viability, T/C (second compound 3.16 µM, first compound 0.00949 µM) was 96%. For the same molecule, the viability, T/C (second compound 3.16 µM, first compound 0.03 µM) was 101%, the viability, T/C (second compound 3.16 µM, first compound 0.0949 µM) was 93.8% and the viability, T/C (second compound 3.16 µM, first compound 0.3 µM) was 81.9%. For the same molecule, the viability, T/C (second compound 3.16 µM, first compound 0.949 µM) was 34.8%, the viability, T/C (second compound 3.16 µM, first compound 3 µM) was 6.76% and the viability, T/C (second compound 10 µM, first compound 0.00949 µM) was 80.5%. It also gave a viability, T/C (second compound 10 µM, first compound 0.03 µM) of 77%, a viability, T/C (second compound 10 µM, first compound 0.0949 µM) of 76.4% and a viability, T/C (second compound 10 µM, first compound 0.3 µM) of 60.7%. It also gave a viability, T/C (second compound 10 µM, first compound 0.949 µM) of 29.1% and a viability, T/C (second compound 10 µM, first compound 3 µM) of 2.25%.
